In article PMC13266999, “Designing Antibiotics with Inherent Resistance to Efflux as a Strategy to Revive Discovery against Multidrug-Resistant Pathogens” (Journal of Medicinal Chemistry, 2026):
Read-outs that look alike come from different tables or passages of the source.

How the values were obtained:
WT DNA gyrase = target: T1, WT DNA gyrase (Staphylococcus aureus, UniProt P0A0K8+P20831); test: DNA gyrase supercoiling inhibition assay; type: biochemical, S. aureus
T1 construct: purchased Inspiralis Ltd. (Norwich, UK)
Protocol: (§1) Gyrase inhibition was determined through biochemical assay kits from Inspiralis Ltd. (Norwich, UK), according to manufacturer’s instructions, and as described previously. Briefly, 1U of enzyme was incubated with 0.5 μg of relaxed […] DNA in the presence of compound in 1% DMSO for 30 min at 37 °C. A control reaction contained no compound but still contained 1% DMSO. The reactions were stopped through Stop Buffer addition and the DNA separated through addition of chloroform/iso-amyl alcohol (24;1). Samples were run on a 1% agarose gel at 75 V for 2 h, which was then stained with 1 μg/mL ethidium bromide and visualized using a NuGenius gel imager (Syngene). The intensity of the supercoiled DNA band was quantified using Syngene software, and the inhibition of the supercoiling of the DNA by the compounds was calculated.

[1] = target: T2, GyrA S84L mutant DNA gyrase (Staphylococcus aureus, UniProt P0A0K8+P20831, S84L); test: DNA gyrase supercoiling inhibition assay; type: biochemical, S. aureus
T2 construct: purchased Inspiralis Ltd. (Norwich, UK)
Protocol: as §1

K. pneumoniae = test: MIC (microbroth dilution); type: cell-based, Klebsiella pneumoniae; settings: Klebsiella pneumoniae, read-out: MIC
Protocol: (§2) All bacteria were maintained on tryptic soy agar (TSA), except Streptococcus spp., which were maintained on Columbia agar plates containing 5% horse blood. […] Bacteria were grown to stationary phase in liquid culture overnight, with shaking at 200 rpm, before being back diluted to the relevant starting concentration for each assay below. MICs were measured by the microbroth dilution method. […] Absorbance at OD600 was read on a CLARIOstar spectrophotometer (BMG Labtech) and the MIC was defined as the minimum concentration of compound where no visible growth was detected. […] MICs were also performed in the presence of the outer membrane permeator, polymyxin b nonapeptide (PMBN) following the same MIC method but with the following variation. The 2-fold dilution series of compound was prepared as above, then 50 μL of PMBN at a final concentration of 30 μg/mL was added to relevant wells, while 50 μL/well of blank media was added to the remaining wells. Bacteria were then added at 50 μL/well for a starting concentration as above. […] The MICs were read and defined as above. All animal procedures were performed by the contract research organization Pharmacology Discovery Services Taiwan in accordance with the Guide for the Care and Use of Laboratory Animals. The procedures were approved by the Institutional Ethics Committee of Pharmacology Discovery Services Taiwan, Ltd. (approval no. AB127662), in compliance with animal welfare legislation in Taiwan.

E. coli = test: MIC (microbroth dilution); type: cell-based; settings: Escherichia coli
Protocol: as §2

S. aureus = test: Serial passaging, MIC of adapted strains; type: cell-based; settings: Staphylococcus aureus
Protocol: MICs were performed on the first and 10th passage.

Acinetobacter baumannii = test: MIC (microbroth dilution); type: cell-based; settings: read-out: MIC
Outline: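 Overnight stationary-phase bacteria were back-diluted and tested by broth microdilution, Streptococcus spp. in cation-adjusted Mueller Hinton broth plus 2.5% lysed horse blood, other species in tryptic soy broth. Some wells also received polymyxin B nonapeptide at 30 μg/mL final. Growth checked visually with OD600; MIC = minimum concentration showing no growth.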

Cc1cc(C)nc(N[C@@H]2CCN(c3c(F)cc4c(=O)c(C(=O)O)cn5c4c3OC[C@@H]5C)C2)n1 [Compound 50, (S)-10-((R)-3-((4,6-Dimethylpyrimidin-2-yl)amino)pyrrolidin-1-yl)-9-fluoro-3-methyl-7-oxo-2,3-dihydro-7H-[1,4]oxazino[2,3,4-ij]quinoline-6-carboxylic acid]
16 µg/mL: MIC (K. pneumoniae; NCTC13368, NCTC 13368) | MIC (Acinetobacter baumannii; Acinetobacter baumannii, A318)
8.38 µM: IC50 [1]
32 µg/mL: MIC (E. coli; 319238/UR)
5.56 µM: IC50 (WT DNA gyrase)
8 µg/mL: MIC (E. coli; LEC077) | MIC (E. coli; LEC081) | MIC (Acinetobacter baumannii; Acinetobacter baumannii, 86, oxa23) | MIC (Acinetobacter baumannii; Acinetobacter baumannii, BAA1710, BAA-1710 (AYE)) | MIC (Acinetobacter baumannii; Acinetobacter baumannii, T strain) | MIC (Acinetobacter baumannii; Acinetobacter baumannii, UKA2, Low resistance) | MIC (Acinetobacter baumannii; Acinetobacter baumannii, W1)
0.03 µg/mL: MIC (S. aureus; 1199B WT) | MIC (S. aureus; 1199B adapted to 4 x MIC of Compound 51) | MIC (S. aureus; 1199 adapted to 4 x MIC of Compound 7)
0.125 µg/mL: MIC (E. coli; NCTC10418, NCTC 10418) | MIC (S. aureus; 1199B adapted to 4 x MIC of Compound 46) | MIC (S. aureus; 1199 adapted to 4 x MIC of Compound 50) | MIC (S. aureus; NCTC13616, NCTC 13616 WT) | MIC (Acinetobacter baumannii; Acinetobacter baumannii, A601 colS) | MIC (Acinetobacter baumannii; Acinetobacter baumannii, BAA1709, BAA-1709) | MIC (Acinetobacter baumannii; Acinetobacter baumannii, NCTC10303, NCTC 10303) | MIC (Acinetobacter baumannii; Acinetobacter baumannii, UKA9)
> 64 µg/mL: MIC (Acinetobacter baumannii; Acinetobacter baumannii, NCTC13424, NCTC 13424, oxa23)
0.5 µg/mL: MIC (E. coli; LEC006) | MIC (S. aureus; NCTC13616, NCTC 13616 adapted to 4 x MIC of Compound 7) | MIC (S. aureus; NCTC13616, NCTC 13616 adapted to 4 x MIC of Compound 50) | MIC (Acinetobacter baumannii; Acinetobacter baumannii, UKA19)
≤ 0.015 µg/mL: MIC (S. aureus; 1199B adapted to 4 x MIC of Compound 7) | MIC (S. aureus; 1199 adapted to 4 x MIC of Compound 46) | MIC (S. aureus; 1199 adapted to 4 x MIC of Compound 51)
0.25 µg/mL: MIC (E. coli; LEC007) | MIC (E. coli; NCTC11954, NCTC 11954) | MIC (E. coli; NCTC12241, NCTC 12241) | MIC (S. aureus; 1199B adapted to 4 x MIC of Compound 50) | MIC (S. aureus; NCTC13616, NCTC 13616 adapted to 4 x MIC of Compound 46) | MIC (Acinetobacter baumannii; Acinetobacter baumannii, ATCC17978, ATCC 17978)
≤ 0.06 µg/mL: MIC (Acinetobacter baumannii; Acinetobacter baumannii, A118)
0.015 µg/mL: MIC (S. aureus; 1199 WT)
2 µg/mL: MIC (K. pneumoniae; M6)
4 µg/mL: MIC (Acinetobacter baumannii; Acinetobacter baumannii, 96, oxa23) | MIC (Acinetobacter baumannii; Acinetobacter baumannii, 113, oxa23) | MIC (Acinetobacter baumannii; Acinetobacter baumannii, A319) | MIC (Acinetobacter baumannii; Acinetobacter baumannii, A600 colR) | MIC (Acinetobacter baumannii; Acinetobacter baumannii, NCTC13302, NCTC 13302, oxa24) | MIC (Acinetobacter baumannii; Acinetobacter baumannii, UKA1, oxa23) | MIC (Acinetobacter baumannii; Acinetobacter baumannii, UKA12, oxa23) | MIC (Acinetobacter baumannii; Acinetobacter baumannii, UKA13, oxa23) | MIC (Acinetobacter baumannii; Acinetobacter baumannii, UKA15, oxa23)
1 µg/mL: MIC (E. coli; NCTC12923, NCTC 12923) | MIC (S. aureus; NCTC13616, NCTC 13616 adapted to 4 x MIC of Compound 51)
